Reference: paper PMC5667507, “A novel ^18F-labelled high affinity agent for PET imaging of the translocator protein” (Chemical Science, 2015)

System: TSPO
Assay: Dynamic PET scan of a mouse bearing an intracranial U87MG-Luc2 tumour
Assay type: in vivo
Settings: single mouse, 120 min dynamic PET, early portion of the scan
Procedure: In order to investigate the potential of [^18F]-AB5186 6 as a PET tracer for TSPO a dynamic PET scan was performed using the Albira imaging system (Carestream Molecular Imaging, USA) in a single mouse bearing an intracranial U87MG-Luc2 tumour for 120 min after intravenous administration of the tracer. Postmortem histological examination of the brain collected at the end of the scan was conducted to visualise the anatomical location of the tumour. Following reconstruction, the entire dynamic PET image was manually co-registered to key anatomical structures of the CT (i.e. the spine, the front limbs and the eye sockets). […]
Fig. 6 Averaged PET images of a U87MG-Luc2 glioma bearing mouse brain following [^18F]-AB5186 injection: (a) 0–40 min averaged, (b) 41–80 min averaged, and (c) 81–120 min averaged; 120 min dynamic scan. […] (f) Tracer kinetics expressed as a ratio of the tumour to contralateral SUVs.
20 min the mice were sacrificed by CO2 asphyxiation, the brains were removed and frozen using a Cryospray (Cellpath). […] The film was developed following an overnight incubation at −20 ° C and scanned using a Bio-Rad GS-800 Calibrated Densitometer with the aid the Quantity One Basic (version 4.6.3) software. Quantification was performed using the ImageJ 1.47v software. […]

CCN(CC)C(=O)c1nc2ccccc2c(-c2ccccc2)c1C[18F] [[^18F]-AB5186 6]
amount of tracer in tumour versus contralateral region (time-activity curve): greater amounts
